Experimental data published in patent US8513295B2, “Viral and fungal inhibitors” (Georgetown University, priority 2008, dated 2013).

Assays:
[1] = target: T1, WNV protease (UniProt Q9Q6P4); experiment: in vitro WNV protease assay (Example 2); assay type: biochemical, West Nile Virus (EG101 strain); details: Protease Inhibition Activity, Table 1; read-out: IC50 (μM) WNVpro
T1 construct: "expression and purification of WNV (EG101 strain) were similar to those described elsewhere by Mueller et al."
T1 sequence (Q9Q6P4 1506-2124): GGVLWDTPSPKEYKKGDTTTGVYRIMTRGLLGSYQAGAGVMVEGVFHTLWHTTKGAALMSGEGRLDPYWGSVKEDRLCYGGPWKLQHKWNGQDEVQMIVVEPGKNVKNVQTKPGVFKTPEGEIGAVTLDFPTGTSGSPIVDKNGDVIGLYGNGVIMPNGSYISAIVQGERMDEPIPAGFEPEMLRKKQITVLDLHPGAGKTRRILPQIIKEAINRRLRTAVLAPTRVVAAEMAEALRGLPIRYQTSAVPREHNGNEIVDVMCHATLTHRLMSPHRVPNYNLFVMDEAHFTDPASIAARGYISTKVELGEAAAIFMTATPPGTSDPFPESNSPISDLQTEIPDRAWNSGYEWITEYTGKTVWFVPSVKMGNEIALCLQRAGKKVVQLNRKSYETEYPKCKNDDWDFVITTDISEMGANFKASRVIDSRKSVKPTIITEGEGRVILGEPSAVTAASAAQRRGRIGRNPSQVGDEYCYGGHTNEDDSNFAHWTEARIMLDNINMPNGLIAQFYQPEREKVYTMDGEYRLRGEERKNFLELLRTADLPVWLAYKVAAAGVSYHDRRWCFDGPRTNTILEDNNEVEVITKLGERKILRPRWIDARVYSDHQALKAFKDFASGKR
Description: Procedures for expression and purification of WNV (EG101 strain) were similar to those described elsewhere by Mueller et al., Int. J. Biochem. Cell. Biol., 39: 606-14 (2007). Briefly, E. coli Top10 F′ cells (Invitrogen, Carlsbad, Calif.) were transformed with the protease expression plasmid. Cells were grown at 37° C. until the OD600 was ˜0.5. Cells were then induced with isopropyl-1-thio-β-D-galactopyranoside (American Bioanalytical, Natick, Mass.) (0.5 mM), and incubated for 4 h at 37° C. Cells were harvested by centrifugation (5000×g) for 15 min at 4° C., washed once with a buffer containing 50 mM Tris-HCl, pH 7.5, and 200 mM NaCl, centrifuged at 5000×g for 15 min at 4° C., and stored at −80° C. until used.
Proteases were purified by suspending bacterial pellets in 50 mM Hepes, pH 7.0, 500 mM NaCl, (buffer A) with 0.05 mg/ml lysozyme. Cells were incubated for 30 min on ice after addition of 10% stock solution of Triton X-100 (final concentration of 0.5%). Cells were disrupted by sonication for 2 min and the soluble fraction was collected after centrifugation (15,000×g) for 30 min at 4° C. The soluble fraction was incubated for 1 h at 4° C. with Talon resin (BD Bioscience, San Jose, Calif.) which was pre-equilibrated in buffer A. The affinity resin was centrifuged at (400×g) for 10 min at 4° C., washed three times with buffer A, and packed into a column. Washing of the column was continued with the buffer A containing 10 mM imidazole, followed by elution of the protease with buffer A containing 150 mM imidazole. The protease was concentrated and further purified by Sephadex G-75 gel filtration chromatography. The purified protease fractions were pooled and dialyzed against a buffer containing 50 mM Tris-HCl pH 7.5 and 300 mM NaCl (4×1L). Aliquots (100 μl) were frozen at −80° C.
(§1) Compounds I-1 to I-14 and II-1 to II-4 (which were synthesized using methods of organic synthesis as discussed above) were analyzed by in vitro protease assays performed in opaque 96-well plates. The enzyme kinetics was done under steady-state conditions. The standard reaction mixtures (50 μL) containing 200 mM Tris-HCl, pH 9.5, 6 mM NaCl, 30% glycerol, 67 nM of WNV protease and 50 μM inhibitor in each assay were incubated for 15 min at room temperature. Reactions were started by the addition of the substrate Boc-Gly-Lys-Arg-AMC at 100 μM final concentration and incubated at room temperature for 15 min. The absorbance of each well containing para-nitroaniline was measured at 405 nm using a spectrophotometer (Molecular Devices, Sunnyvale, Calif.); the fluorescence of AMC released from the WNV substrate was measured using a Tecan Geneios (Durham, N.C.) spectrofluorometer at excitation and emission wavelengths of 390 nm and 420 nm, respectively. Similarly, the WNV protease activity was also determined using the fluorogenic tetrapeptide substrate containing the P4-P1 residues and the fluorogenic group, 4-methoxy-β-naphthylamide (MNA), at P1′ position (Z-Val-Lys-Lys-Arg-MNA) (SEQ ID NO:1). Fluorescence was measured using a spectrofluorometer (Molecular Devices) at excitation and emission wavelengths of 290 and 420 nm, respectively. Fluorescence values obtained with no inhibitor control were taken as 100% and those in the presence of inhibitors were plotted as the percent inhibition of the control.
(§2) Compounds I-2, I-4, I-6, I-7, I-8, I-9, I-23, I-26, I-27, I-28, I-29, I-30, I-31, I-32, III-1, III-2, VI-1, VI-2, VI-3, and VI-4 were also tested for WNV protease inhibition activity according to the procedure detailed above. Further, Compounds I-28, V-1, VI-2, VI-3, VI-4, and IX-1 were tested for DENV protease inhibition activity. The structures of Compounds I-2, I-4, I-6, I-7, I-8, I-9, I-23, I-26, I-27, I-28, I-29, I-30, I-31, I-32, III-1, III-2, VI-1, VI-2, VI-3, VI-4, and IX-1 are provided above.

[2] = target: DENV protease (Dengue virus type 2, UniProt P14340); experiment: DENV protease inhibition activity; assay type: biochemical
Chain of DENV protease (P14340 1394-1440): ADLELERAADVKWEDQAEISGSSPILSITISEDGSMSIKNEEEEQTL
Chain of DENV protease (P14340 1476-1653): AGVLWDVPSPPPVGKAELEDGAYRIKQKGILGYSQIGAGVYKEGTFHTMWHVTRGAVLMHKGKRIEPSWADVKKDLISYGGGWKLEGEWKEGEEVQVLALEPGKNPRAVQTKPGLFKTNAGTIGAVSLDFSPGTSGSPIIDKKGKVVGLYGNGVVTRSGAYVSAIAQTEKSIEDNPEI
Description: as §1, §2

| Structure (SMILES) | IC50 [1] [µM] | IC50 [2] [µM] |
| --- | --- | --- |
| O=C(Nc1cccc(Oc2ccccc2)c1)C(Cc1ccccc1)N1Cc2ccccc2C1=O (centres unmarked) [Compound I-2] | 11.1 | – |
| O=C(Nc1ccc(Oc2ccccc2)cc1)C(Cc1ccccc1)N1Cc2ccccc2C1=O (centres unmarked) [Compound I-4] | 19.7 | – |
| O=C(CNC(=O)Nc1cccc(Oc2ccccc2)c1)NCc1ccccc1 [Compound I-6] | 22.1 | – |
| O=C(CNC(=O)Nc1ccc(Oc2ccccc2)cc1)NCc1ccccc1 [Compound I-7] | 26.1 | – |
| O=C(CNC(=O)Nc1cccc(Oc2ccccc2)c1)Nc1ccccc1 [Compound I-8] | 22.9 | – |
| O=C(CNC(=O)Nc1ccc(Oc2ccccc2)cc1)Nc1ccccc1 [Compound I-9] | 31.2 | – |
| O=C(CCCCc1ccccc1)Nc1cccc(Oc2ccccc2)c1 [Compound I-23] | 38.6 | – |
| O=C(CC(C(=O)Nc1cccc(Oc2ccccc2)c1)N1Cc2ccccc2C1=O)OCc1ccccc1 (centres unmarked) [Compound I-26] | 13 | – |
| O=C(CCC(C(=O)Nc1cccc(Oc2ccccc2)c1)N1Cc2ccccc2C1=O)OCc1ccccc1 (centres unmarked) [Compound I-27] | 22.7 | – |
| O=C(CCC(C(=O)Nc1ccc(Oc2ccccc2)cc1)N1Cc2ccccc2C1=O)OCc1ccccc1 (centres unmarked) [Compound I-28] | 15.5 | 45 |
| O=C(Nc1ccc(Oc2ccccc2)cc1)C(C(=O)OCc1ccccc1)n1sc2ccccc2c1=O (centres unmarked) [Compound I-29] | 9 | – |
| O=C(Nc1ccccc1Oc1ccccc1)C(Cc1ccccc1)n1sc2ccccc2c1=O (centres unmarked) [Compound I-30] | 6 | – |
| O=C(Nc1cccc(Oc2ccccc2)c1)C(Cc1ccccc1)n1sc2ccccc2c1=O (centres unmarked) [Compound I-31] | 2.6 | – |
| O=C(Nc1ccc(Oc2ccccc2)cc1)C(Cc1ccccc1)n1sc2ccccc2c1=O (centres unmarked) [Compound I-32] | 6.6 | – |
| O=C1c2ccccc2CN1C(Cc1ccccc1)c1nnc(-c2cccc(Cl)c2)o1 (centres unmarked) [Compound V-1] | – | 12.2 |
| O=C(CSc1nc(-c2ccccc2)no1)Nc1nc2ccccc2[nH]1 [III-1] | 14.7 | – |
| O=C(CSc1nc2ccccc2s1)Nc1nc2ccccc2s1 [III-2] | 34.1 | – |
| O=C(CSc1nc2ccccc2c(=O)[nH]1)Nc1cccc(Oc2ccccc2)c1 [IX-1] | – | 89 |
| COc1ccc(Cc2nnc(C(Cc3ccccc3)n3sc4ccccc4c3=O)o2)cc1 (centres unmarked) [VI-1] | 26 | – |
| O=c1c2ccccc2sn1C(Cc1ccccc1)c1nnc(Cc2ccccc2)o1 (centres unmarked) [VI-2] | 2.1 | 9.6 |
| O=c1c2ccccc2sn1C(Cc1ccccc1)c1nnc(-c2cccc(Cl)c2)o1 (centres unmarked) [VI-3] | 7.6 | 10.6 |
| O=c1c2ccccc2sn1C(Cc1ccccc1)c1nnc(-c2cccc(F)c2)o1 (centres unmarked) [VI-4] | 9.8 | 11.4 |
